In general, IC50 refers to the point on the concentration scale where inhibition reaches its midpoint.

This is an account of results in patent US12415803B2, “Fused imidazopyridines as reversible inhibitors of Brutons Tyrosine Kinase (BTK)” (Merck Patent GmbH, priority 2018, dated 2025).

The target in test [1] is T1, Btk (Homo sapiens (Human), UniProt Q06187). Put plainly: Time Dependent Human Whole Blood IC50 Assay. Particulars: read-out: Assay C (IC50). The format is cell-based.
The target of another test is full-length human BTK (Homo sapiens (Human), UniProt Q06187). Put plainly: BTK IC50 Enzyme Assay (microfluidic off-chip mobility shift kinase assay).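 Note: Read-out separates phosphorylated peptide product from substrate by their charge-to-mass difference, with IC50 fitted from log inhibitor concentration against percent enzyme activity.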 The format is biochemical. Particulars: Btk Enzymatic IC50 Assay, 90 min at 27 C.
The target in test [2] is T1, Btk. The test can be described thus: Btk PBMC IC50 Cell Assay (anti-IgM-induced CD69 expression on B cells).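 Note: freshly isolated human PBMCs, IC50 from concentration-response of the share of CD19+ cells expressing CD69 after anti-IgM BCR stimulation.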 The format is cell-based. Particulars: anti-IgM-induced CD69 expression on CD19 positive cells in human PBMCs.

Where “and” joins values, the source holds several entries; their conditions need not be identical. Equal entries are not always repeated.

full-length human BTK, sequence (Q06187 whole entry): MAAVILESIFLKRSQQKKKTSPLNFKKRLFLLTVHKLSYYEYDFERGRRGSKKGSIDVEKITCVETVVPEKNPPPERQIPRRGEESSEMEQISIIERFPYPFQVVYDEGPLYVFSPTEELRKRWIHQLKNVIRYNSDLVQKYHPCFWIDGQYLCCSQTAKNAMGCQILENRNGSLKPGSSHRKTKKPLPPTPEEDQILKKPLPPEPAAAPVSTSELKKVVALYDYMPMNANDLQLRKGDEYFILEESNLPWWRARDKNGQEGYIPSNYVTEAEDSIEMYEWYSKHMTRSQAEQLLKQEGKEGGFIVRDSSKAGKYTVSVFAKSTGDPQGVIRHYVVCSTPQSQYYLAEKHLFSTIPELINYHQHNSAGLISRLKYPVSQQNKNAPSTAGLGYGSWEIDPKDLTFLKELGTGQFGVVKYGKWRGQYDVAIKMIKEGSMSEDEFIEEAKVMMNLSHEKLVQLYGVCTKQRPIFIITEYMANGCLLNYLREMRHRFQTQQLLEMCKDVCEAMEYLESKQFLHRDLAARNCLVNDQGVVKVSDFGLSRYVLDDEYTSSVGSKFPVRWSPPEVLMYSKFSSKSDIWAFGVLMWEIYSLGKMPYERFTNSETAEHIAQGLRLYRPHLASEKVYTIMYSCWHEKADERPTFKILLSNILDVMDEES
T1 sequence (Q06187 whole entry): as above

For the molecule `Cc1nn(C(C)C)c(C)c1-c1nc2c(-c3ccc4c(c3)CCCC[C@H]4NC(=O)c3noc(C4(C)CC4)n3)ccnc2[nH]1` [Compound 33, 5-(1-Methyl-cyclopropyl)-[1,2,4]oxadiazole-3-carboxylic acid {(R)-2-[2-(1-isopropyl-3,5-dimethyl-1H-pyrazol-4-yl)-3H-imidazo[4,5-b]pyridin-7-yl]-6,7,8,9-tetrahydro-5H-benzocyclohepten-5-yl}-amide], the values for the IC50 at Btk [1], at full-length human BTK and against Btk [2] were 1 to 10 nM, under 1 nM and 1 to 10 nM, respectively.
Take `Cn1cc(-c2nc3c(-c4ccc5c(c4)CCCC[C@H]5NC(=O)c4cc(C5(C)CC5)on4)ccnc3[nH]2)cn1` [Compound 56, 5-(1-Methyl-cyclopropyl)-isoxazole-3-carboxylic acid {(R)-2-[2-(1-methyl-1H-pyrazol-4-yl)-3H-imidazo[4,5-b]pyridin-7-yl]-6,7,8,9-tetrahydro-5H-benzocyclohepten-5-yl}-amide]: the IC50 on Btk [1] is 1 to 10 nM; at full-length human BTK, under 1 nM; against Btk [2], 1 to 10 nM.
Take `Cc1nn(C)c(C)c1-c1nc2c(-c3ccc4c(c3)CCCCC4NC(=O)c3cc(C(C)(C)C)on3)ccnc2[nH]1` (stereo not drawn) [Compound 70]: the IC50 is 10 to 100 nM on Btk [1], 1 to 10 nM at full-length human BTK and 1 to 10 nM on Btk [2].
Take `Cc1nn(C)c(C)c1-c1nc2nccc(-c3ccc4c(c3)CCCC[C@H]4NC(=O)c3cc(C(C)(C)C)on3)c2[nH]1` [Compound 72]: the IC50 at Btk [1] was 10 to 100 nM; on full-length human BTK it was under 1 nM; against Btk [2], 1 to 10 nM.
Regarding `Cc1nn(C)c(C)c1-c1nc2c(-c3ccc4c(c3)CCC[C@H]4NC(=O)c3nc(C(C)(C)C)no3)ccnc2[nH]1` [Compound 74, 3-tert-butyl-N-[(1R)-6-[2-(1,3,5-trimethyl-1H-pyrazol-4-yl)-3H-imidazo[4,5-b]pyridin-7-yl]-1,2,3,4-tetrahydronaphthalen-1-yl]-1,2,4-oxadiazole-5-carboxamide], the concentration for half-maximal inhibition (IC50) on Btk [1] was 10 to 100 nM; at full-length human BTK, under 1 nM; on Btk [2] it was 1 to 10 nM.
The corresponding values for `Cc1nn(C(C)C)cc1-c1nc2nccc(-c3ccc4c(c3)CCCC[C@H]4NC(=O)c3nnc(C(C)(C)C)o3)c2[nH]1` [Compound 78, 5-tert-butyl-N-[(5R)-2-{2-[3-methyl-1-(propan-2-yl)-1H-pyrazol-4-yl]-1H-imidazo[4,5-b]pyridin-7-yl}-6,7,8,9-tetrahydro-5H-benzo[7]annulen-5-yl]-1,3,4-oxadiazole-2-carboxamide] are 1 to 10 nM, under 1 nM and 1 to 10 nM.
Take `Cc1c(-c2nc3nccc(-c4ccc5c(c4)CCCC[C@H]5NC(=O)c4nnc(C(C)(C)C)o4)c3[nH]2)cnn1C1CCOCC1` [Compound 79, 5-tert-butyl-N-[(5R)-2-{2-[5-methyl-1-(oxan-4-yl)-1H-pyrazol-4-yl]-1H-imidazo[4,5-b]pyridin-7-yl}-6,7,8,9-tetrahydro-5H-benzo[7]annulen-5-yl]-1,3,4-oxadiazole-2-carboxamide]: the IC50 was 10 to 100 nM and 1 to 10 nM at Btk [1]; under 1 nM at full-length human BTK; 1 to 10 nM at Btk [2].
Take `CC(C)n1cc(-c2nc3nccc(-c4ccc5c(c4)CCCC[C@@H]5NC(=O)c4nc(C(C)(C)C)no4)c3[nH]2)cn1` [Compound 81, 3-tert-butyl-N-[(5S)-2-{2-[1-(propan-2-yl)-1H-pyrazol-4-yl]-1H-imidazo[4,5-b]pyridin-7-yl}-6,7,8,9-tetrahydro-5H-benzo[7]annulen-5-yl]-1,2,4-oxadiazole-5-carboxamide]: the IC50 at Btk [1] was 10 to 100 nM; at full-length human BTK, 1 to 10 nM; on Btk [2], 10 to 100 nM.
With `CC(C)(C)c1noc(C(=O)NC2CCCCc3cc(-c4ccnc5[nH]c(-c6cnn(C7CC7)c6)nc45)ccc32)n1` (stereo not drawn) [Compound 83, 3-tert-butyl-N-{2-[2-(1-cyclopropyl-1H-pyrazol-4-yl)-3H-imidazo[4,5-b]pyridin-7-yl]-6,7,8,9-tetrahydro-5H-benzo[7]annulen-5-yl}-1,2,4-oxadiazole-5-carboxamide], the IC50 was 1 to 10 nM on Btk [1], under 1 nM at full-length human BTK and 1 to 10 nM against Btk [2].
Consider `CCc1cc(-c2nc3nccc(-c4ccc5c(c4)CCCC[C@@H]5NC(=O)c4nnc(C(C)(C)C)o4)c3[nH]2)nn1C` [Compound 89, 5-tert-butyl-N-[(5S)-2-[2-(5-ethyl-1-methyl-1H-pyrazol-3-yl)-1H-imidazo[4,5-b]pyridin-7-yl]-6,7,8,9-tetrahydro-5H-benzo[7]annulen-5-yl]-1,3,4-oxadiazole-2-carboxamide], for which the IC50 was 1 to 10 nM at Btk [1], under 1 nM on full-length human BTK and 1 to 10 nM at Btk [2].
Take `CC(C)n1cc(-c2nc3c(-c4ccc5c(c4)CCCCC5NC(=O)c4cc(C(C)(C)C)on4)ccnc3[nH]2)cn1` (stereo not drawn) [Compound 91, 5-tert-butyl-N-(2-{2-[1-(propan-2-yl)-1H-pyrazol-4-yl]-3H-imidazo[4,5-b]pyridin-7-yl}-6,7,8,9-tetrahydro-5H-benzo[7]annulen-5-yl)-1,2-oxazole-3-carboxamide]: the IC50 at Btk [1] is 1 to 10 nM; on full-length human BTK it was under 1 nM; at Btk [2], 1 to 10 nM.
Regarding `CC(C)n1cc(-c2nc3c(-c4ccc5c(c4)CCCC[C@H]5NC(=O)c4cc(C(C)(C)C)on4)ccnc3[nH]2)cn1` [Compound 92], the IC50 on Btk [1] was 10 to 100 nM; on full-length human BTK, under 1 nM; on Btk [2], 1 to 10 nM.
The corresponding values for `Cc1cc(-c2nc3c(-c4ccc5c(c4)CCCC5NC(=O)c4nc(C(C)(C)C)no4)ccnc3[nH]2)nn1C` (stereo not drawn) [Compound 107, 3-tert-Butyl-[1,2,4]oxadiazole-5-carboxylic acid {6-[2-(1,5-dimethyl-1H-pyrazol-3-yl)-3H-imidazo[4,5-b]pyridin-7-yl]-1,2,3,4-tetrahydro-naphthalen-1-yl}-amide] are 10 to 100 nM, under 1 nM and 10 to 100 nM.
The corresponding values for `CCc1cc(-c2nc3c(-c4ccc5c(c4)CCCC5NC(=O)c4nc(C(C)(C)C)no4)ccnc3[nH]2)nn1C` (stereo not drawn) [Compound 108, 3-tert-Butyl-[1,2,4]oxadiazole-5-carboxylic acid {6-[2-(5-ethyl-1-methyl-1H-pyrazol-3-yl)-3H-imidazo[4,5-b]pyridin-7-yl]-1,2,3,4-tetrahydro-naphthalen-1-yl}-amide] are 10 to 100 nM, under 1 nM and 10 to 100 nM.
The corresponding values for `Cc1c(-c2nc3c(-c4ccc5c(c4)CCCC5NC(=O)c4nc(C(C)(C)C)no4)ccnc3[nH]2)cnn1C` (stereo not drawn) [Compound 111, 3-tert-Butyl-[1,2,4]oxadiazole-5-carboxylic acid {6-[2-(1,5-dimethyl-1H-pyrazol-4-yl)-3H-imidazo[4,5-b]pyridin-7-yl]-1,2,3,4-tetrahydro-naphthalen-1-yl}-amide] are over 100 nM, 1 to 10 nM and 1 to 10 nM.
In the case of `Cc1nn(C)c(C)c1-c1nc2c(-c3ccc4c(c3)CCCCC4NC(=O)c3nnc(C(C)(C)C)o3)ccnc2[nH]1` (stereo not drawn) [Compound 116, 5-tert-Butyl-[1,3,4]oxadiazole-2-carboxylic acid {2-[2-(1,3,5-trimethyl-1H-pyrazol-4-yl)-3H-imidazo[4,5-b]pyridin-7-yl]-6,7,8,9-tetrahydro-5H-benzocyclohepten-5-yl}-amide], the figures for the half-maximal inhibitory concentration (IC50) on Btk [1], at full-length human BTK and at Btk [2] were 10 to 100 nM, 1 to 10 nM and 1 to 10 nM, respectively.
`Cc1nn(C(C)C)cc1-c1nc2c(-c3ccc4c(c3)CCCCC4NC(=O)c3nnc(C(C)(C)C)o3)ccnc2[nH]1` (stereo not drawn) [Compound 118, 5-tert-Butyl-[1,3,4]oxadiazole-2-carboxylic acid {2-[2-(1-isopropyl-3-methyl-1H-pyrazol-4-yl)-3H-imidazo[4,5-b]pyridin-7-yl]-6,7,8,9-tetrahydro-5H-benzocyclohepten-5-yl}-amide]: the IC50 on Btk [1] was 1 to 10 nM; on full-length human BTK, under 1 nM; against Btk [2] it was 1 to 10 nM.
On to `Cc1c(-c2nc3c(-c4ccc5c(c4)CCCCC5NC(=O)c4nnc(C(C)(C)C)o4)ccnc3[nH]2)cnn1C1CCOCC1` (stereo not drawn) [Compound 120, 5-tert-Butyl-[1,3,4]oxadiazole-2-carboxylic acid (2-{2-[5-methyl-1-(tetrahydro-pyran-4-yl)-1H-pyrazol-4-yl]-3H-imidazo[4,5-b]pyridin-7-yl}-6,7,8,9-tetrahydro-5H-benzocyclohepten-5-yl)-amide], for which the IC50 at Btk [1] is 1 to 10 nM; at full-length human BTK, under 1 nM; at Btk [2] it was 1 to 10 nM.
Take `Cc1nn(C)c(C)c1-c1nc2c(-c3ccc4c(c3)CCCC[C@H]4NC(=O)c3nnc(C(C)(C)C)o3)ccnc2[nH]1` [Compound 121, 5-tert-Butyl-[1,3,4]oxadiazole-2-carboxylic acid {(R)-2-[2-(1,3,5-trimethyl-1H-pyrazol-4-yl)-3H-imidazo[4,5-b]pyridin-7-yl]-6,7,8,9-tetrahydro-5H-benzocyclohepten-5-yl}-amide]: the results for the IC50 on Btk [1], on full-length human BTK and against Btk [2] were 10 to 100 nM, under 1 nM and 1 to 10 nM, respectively.
Turning to `Cc1nn(C)c(C)c1-c1nc2c(-c3ccc4c(c3)CCCC[C@H]4NC(=O)c3nc(C4(C)CC4)no3)ccnc2[nH]1` [Compound 123, 3-(1-Methyl-cyclopropyl)-[1,2,4]oxadiazole-5-carboxylic acid {(R)-2-[2-(1,3,5-trimethyl-1H-pyrazol-4-yl)-3H-imidazo[4,5-b]pyridin-7-yl]-6,7,8,9-tetrahydro-5H-benzocyclohepten-5-yl}-amide], the IC50 at Btk [1] was 1 to 10 nM; at full-length human BTK, under 1 nM; at Btk [2] it was 1 to 10 nM.
Consider `CCc1cc(-c2nc3c(-c4ccc5c(c4)CCCCC5NC(=O)c4nnc(C(C)(C)C)o4)ccnc3[nH]2)nn1C` (stereo not drawn) [Compound 131, 5-tert-Butyl-[1,3,4]oxadiazole-2-carboxylic acid {2-[2-(5-ethyl-1-methyl-1H-pyrazol-3-yl)-3H-imidazo[4,5-b]pyridin-7-yl]-6,7,8,9-tetrahydro-5H-benzocyclohepten-5-yl}-amide], for which the IC50 at Btk [1] is 10 to 100 nM; on full-length human BTK, under 1 nM; at Btk [2] it was 1 to 10 nM.
